Reference: US12076340B2, “Use of trientine to deliver copper to ischemic tissue” (INNOLIFE CO., LTD., priority 2015, dated 2024)

Assays:
[1] = test system: Sprague-Dawley rats with pathologic cardiac hypertrophy
Protocol: This example describes an in vivo experiment for assessing efficacy of the trientine therapy in Sprague-Dawley rats with pathologic cardiac hypertrophy. The rat model of pathologic cardiac hypertrophy was established by an ascending aortic constriction operation.
The rats were sedated by intraperitoneal injection of 10% chloral hydrate ([…]) for echocardiography measurements. At 4 months after the aortic constriction operation and at 1, 3 and 5 weeks after the trientine treatment, a series of echocardiograms were performed using an 11.5-MHz transducer (Vivid 7 Dimension, GE). Interventricular septum depth (IVSD) and left ventricular posterior wall depth (LVPWD) were obtained using two-dimensional mode by taking measurements of the short-axis cross-sectional areas and the left ventricular length.
The ejection fraction (EF) and shortening fraction (FS) of the left ventricular were evaluated with the Simpson's single-plane method. Left-ventricular end-diastolic volume (LVEDV), end-systolic volume (LVESV), end-diastolic interior diameter (LVIDd) and end-systolic interior diameter (LVIDs) were directly recorded. EF and FS were calculated according to the following formulas: EF=(LVEDV−LVESV)/LVEDV×100%, FS=(LVIDd−LVIDs)/LVIDd×100%
(§1) The aortic ascending constriction (AAC) group was divided into three groups: a control group (NS group) and two trientine treatment groups (Tr(H) group and Tr(L) group). Rats in the sham group were subjected to the same surgical procedure except for the steps of the aortic ascending constriction. The sham group rats were also divided into three groups: a control group (NS group) and two trientine treatment groups (Tr(H) group and Tr(L) group). Rats in the control groups were treated with a saline solution. Trientine was administered orally twice a day in the trientine treatment groups. Two doses of trientine (dose calculated based on trientine dihydrochloride) were administered, […]. The treatment was continued for 6 weeks.
(§2) Cardiac morphology and functions were evaluated by echocardiography, and plasma copper concentrations were measured (i.e. blood detection) to assess therapeutic efficacy of the trientine treatments according to the schedule shown in FIG. 7.

[2] = test system: Sprague-Dawley rats with pathologic cardiac hypertrophy; conditions: AAC rats, trientine treatment for 6 weeks, AAC-Tr(H) and AAC-Tr(L) combined; FIG. 10A
Protocol: as §1, §2
Tissue samples were freshly frozen and stored at −80° C. before lyophilization. […] Ultrapure water was added to each vessel to dilute HNO3 to 2% for subsequent analyses of copper concentrations.

[3] = test system: Rhesus monkey model of heart failure; conditions: 18 mg/kg/day oral two times daily, eight weeks; untreated group decreased; FIG. 12
Protocol: The ejection fraction (EF) of the left ventricular was evaluated with the Simpson's single-plane method. Left-ventricular end-diastolic volume (LVEDV) and end-systolic volume (LVESV) were directly recorded, and EF was calculated using as follows: EF=(LVEDV−LVESV)/LVEDV×100%.
(§3) Trientine treatment was subsequently conducted. In the trientine-treated group, trientine was administered to each monkey orally two times daily. The dose of trientine was 18 mg/kg/day. This treatment was continued for eight weeks. […] Cardiac functions and morphology were evaluated according to the schedule shown in FIG. 11 to assess therapeutic efficacy of trientine.

[4] = test system: Rhesus monkey model of heart failure; conditions: 18 mg/kg/day oral, eight weeks; FIG. 13
Protocol: as §3
Tissue samples were freshly frozen and stored at −80° ° C. before lyophilization. […] Ultrapure water was added to each vessel to dilute HNO3 to 2% for subsequent analyses of copper concentrations. Copper concentrations were determined by graphite furnace atomic absorption spectrophotometry (ICE3500, Thermo) according to the program shown in Table 1 of Example 3.
Copper concentration in the myocardium was determined by atomic absorption spectroscopy.

[5] = test system: mouse model of myocardial ischemic infarction; conditions: 4 weeks
Protocol: (§4) In this experiment, a mouse model of myocardial ischemic infarction was established by a permanent coronary artery ligation operation.
(§5) Trientine treatment was administered to four groups of modelized mice via intragastric route twice a day at a dose of 16.75, 33.49, 55.94, or 78.25 mg/kg per day. This treatment was continued for 4 weeks.
Cardiac functions were evaluated by echocardiography to assess therapeutic efficacy of trientine. All mice were subjected to transthoracic echocardiographic evaluation with a 12 MHz transducer (i13L, Vivid7, GE Ultrasound). The ejection fraction (EF) of the left ventricular was evaluated with the Simpson's single-plane method. Left-ventricular end-diastolic volume (LVEDV) and end-systolic volume (LVESV) were directly recorded, and EF was calculated using as follows: EF=(LVEDV−LVESV)/LVEDV×100%.

[6] = test system: mouse model of myocardial ischemic infarction
Protocol: as §4, §5
Tissue samples were freshly frozen and stored at −80° C. before lyophilization. […] Ultrapure water was added to each vessel to dilute HNO3 to 2% for subsequent analyses of copper concentrations. Copper concentrations were determined by graphite furnace atomic absorption spectrophotometry (ICE3500, Thermo) according to the program shown in Table 1 of Example 3.

[7] = AAC rats, oral twice a day, after 3 weeks of treatment

NCCNCCNCCN [trientine, triethylenetetramine]
IVSD as compared to the sham groups ([1]; AAC rats treated for 5 weeks): nearly normal
LVPWD as compared to the sham groups ([1]; AAC rats treated for 5 weeks): nearly normal
interventricular septum depth (IVSD) [1, 7]: decreased significantly
left ventricular posterior wall depth (LVPWD) [1, 7]: decreased significantly
IVSD values over time (continuous monitoring) ([1]; treated AAC groups, control group increased steadily, FIG. 8A): significantly downward trend
LVPWD values over time (continuous monitoring) ([1]; treated AAC groups, control group increased steadily, FIG. 8B): significantly downward trend
left ventricular ejection fraction (EF) ([1]; trientine-treated groups, untreated groups showed significant downward trend, FIG. 9A): did not fluctuate very significantly
left ventricular shortening fraction (FS) ([1]; trientine-treated groups, untreated groups showed significant downward trend, FIG. 9B): did not fluctuate very significantly
copper concentrations in the heart tissues [2]: increased
left ventricular ejection fraction [3]: increased significantly
copper concentration, border zone, compared to untreated group [4]: increased significantly
copper concentration, infarcted area, compared to untreated group [4]: increased significantly
copper concentration, remote areas, treated vs untreated group [4]: comparable
dose at which the improvement ratio of ejection fraction reached a peak ([5]; doses tested 16.75, 33.49, 55.94, 78.25 mg/kg per day): 33.49 mg/kg per day
improvement of left ventricular ejection fraction at higher doses ([5]; intragastric twice a day, FIG. 15): decreased
cardiac function as measured by left ventricular ejection fraction, lower doses ([5]; intragastric twice a day, 16.75-78.25 mg/kg per day, FIG. 15): improved
dose at which copper content in the infarct area was the highest ([6]; doses tested 16.75, 33.49, 55.94, 78.25 mg/kg per day, 4 weeks): 33.49 mg/kg per day
copper content of the infarcted area or ejection fraction at higher doses than 33.49 mg/kg per day ([6]; higher trientine doses tested (55.94, 78.25 mg/kg per day)): no further improvement
copper concentration in the infarcted area ([6]; intragastric twice a day, 4 weeks, FIG. 16): increased significantly
